Test [1] deals with histone deacetylase activity purified from H1299 cells. In words: Histone deacetylase activity, release of tritium labeled acetyl groups from acetylated Histone H4 peptide. It counts as biochemical, Human. The following applies: HDAC activity purified from H1299 cells, 2 hours at 37° C. The method, then: Using conventional methodologies, the actual enzyme activity of […] was examined in the presence of Trapoxin A, Compound A or Compound B. Briefly, 30,000 cpms of a tritium labeled acetylated Histone H4 peptide is incubated with histone deacetylase activity purified from H1299 cells by ion exchange chromatography in HDAC assay buffer (10 mM Tris-Cl, pH 8.0, 10 mM NaCl, 10% glycerol) in the presence or absence of drug. The mixture is allowed to sit for 2 hours at 37° C. and radio-labeled acetyl groups released by histone deacetylase activity extracted into ethyl acetate and counted on a scintillation counter. The IC50 represents the concentration of drug that inhibits 50% of the histone deacetylase activity obtained in the absence of drug.

Test [2] deals with Fra-1 mRNA in A549 cells. In words: Fra-1 mRNA levels by Q-PCR in A549 cells after HDAC inhibitor treatment. It counts as cell-based, Human. To be noted: for % Fra1 mRNA remaining / mrna remaining at 0.1 µM: A549 cells; for mrna remaining at 0.1 µM: Homo sapiens, 100 nM, n = 4 (Example 3), read-out: % Fra1 mRNA remaining. The method, then:
Human A549 non-small lung carcinoma cells (ATCC CCL-185, Manassas, Va.) are cultured in DMEM medium (Life Technologies, Gaithersburg, Md.) containing 4500 mg/l glucose, 10% fetal bovine serum (FBS, Life Technologies) plus 50 μg/ml Gentamycin (Life Technologies) in a humidified incubator with a 5% CO2 atmosphere at 37° C. Prior to Tpx A treatment, A549 cells are plated at a density of 2×10^5 cells/well in 6 well plates (Costar, Corning, N.Y.) and grown up for 24 h. Tpx A (1 mM stock solution in DMSO) is added to the cells at concentrations from 1 to 1000 nM and cells are incubated for either 24 or 48 hours h at 37° C.
(§1) Total RNA from Tpx A treated as well as untreated H1299 and A549 cells is prepared using the RNeasy Mini kit (Qiagen, Hilden, Germany) according to the manufacturers instructions. The RNA is recovered in 50 μl DEPC-treated H2O (RNase free) and the RNA concentration is determined by measuring the OD260 in a SpectraMax photometer (Molecular Devices, Sunnyvale, Calif.).
(§2) Sequences for primers (BIG, Freiburg, Germany) and TaqMan probes for Q-PCR containing 5′ FAM fluorescent reporter and 3′ TAMRA quencher dyes (Eurogentec, Seraing, Belgium) are selected using the Primer Express Software (Applied Biosystems, Foster City, Calif.) at default settings; Primer TM Requirements: Min Tm: 58° C., Max Tm:60° C., Optimal Tm: 59° C., Maximal Tm difference: 2° C. Primer GC Content Requirements: Min %GC 30, Max %GC 80, 3′ clamp of 0 residues. Primer Length Requirements: Min length: 9, Max length: 40, optimal length: 20. Amplicon Requirements: Min Tm: 0° C., Max Tm: 85° C., Min length: 50, Max length: 150. TaqMan Probe Criteria: TaqMan probe Tm must be 10° C. greater than PCR primer Tm.
(§3) Q-PCR is performed using the TaqMan PCR Core reagent kit (Applied Biosystems Foster City, Calif.) in a ABI Prism 7700 sequence detector (Applied Biosystems) according to the manufacturers instructions. 50 ng total RNA in 12 μl DEPC-H2O are prepared in MicroAmp optical 96 well reaction plates (Applied Biosystems) together with 13 μl TaqMan PCR reagent mix as provided in Table 1.
(§4) Settings for reverse transcription of the target RNA and detection by Q-PCR are 50° C. for 2 min., 95° C. for 10 min. followed by 50 cycles of 95° C. for 15 sec and 60° C. for 1 min. Relative measurement of the amplified product is performed using the comparative CT method as described in the manufacturer's manual (Applied Biosystems, ABI Prism 7700 sequence detection system, User Bulletin #2).
Human A549 non-small cell lung carcinoma cells (ATCC, Manassas, Va.) (ATCC #CCL-185) are cultured in DMEM medium (Life Technologies, Gaithersburg, Md.) containing 10% fetal bovine serum (FBS, Life Technologies) plus 50 μg/ml Gentamycin (Life Technologies) in a humidified incubator with a 5% CO2 atmosphere at 37° C. Prior to Compound B treatment, A549 cells are plated at a density of 5×10^4 cells/well in 24 well plates (Costar, Corning, N.Y.) and grown up for 24 h. Compound B (10 mM stock solution in DMSO) is diluted to a final concentration of 100 nM in tissue culture medium and added to the cells. As control an equivalent amount of DMSO is added to control cultures without Compound B. The cells are incubated at 37° C. for either 16, 24 or 48 hrs. All cell cultures are set up in duplicate. Total RNA from the compound—treated as well as untreated A549 cells is prepared using the RNeasy Mini kit (Qiagen, Hilden, Germany) according to the manufacturer's instructions. The RNA is recovered in 50 μl DEPC-treated H2O (RNase free) and the RNA concentration is determined by measuring the OD260 in a SpectraMax photometer (Molecular Devices, Sunnyvale, Calif.). The amount of RNA is adjusted to 5 ng/microliter.
DNA sequence of the Fra-1 primers and probes are as described above. Settings for reverse transcription of the target RNA and detection by Q-PCR are 50° C. for 2 min., 95° C. for 10 min. followed by 50 cycles of 95° C. for 15 sec and 60° C. for 1 min. […]

Test [3] deals with Fra-1 mRNA in H1299 cells. In words: Fra-1 mRNA levels by Q-PCR in H1299 cells after HDAC inhibitor treatment. To be noted: for % Fra1 mRNA remaining / mrna remaining at 0.1 µM: H1299 cells; for mrna remaining at 0.1 µM: Homo sapiens, NCI-H1299, read-out: % Fra1 mRNA remaining. It counts as cell-based, Human. The method, then: Human H1299 non-small cell lung carcinoma cells (ATCC, Manassas, Va.) (ATCC #CRL-5803) are cultured in RPMI 1640 medium (Life Technologies, Gaithersburg, Md.) containing 10% fetal bovine serum (FBS, Life Technologies) plus 50 μg/ml Gentamycin (Life Technologies) in a humidified incubator with a 5% CO2 atmosphere at 37° C. Prior to Tpx A treatment, H1299 cells are plated at a density of 2×10^5 cells/well in 6 well plates (Costar, Corning, N.Y.) and grown up for 24 h. Tpx A (1 mM stock solution in DMSO) is added to the cells at concentrations from 1 to 1000 nM and cells are incubated for either 24 or 48 hours at 37° C.
as §1, §2, §3, §4
(§5) H1299 cells and HCT116 cells (ATCC, Manassas, Va.) are cultured and exposed to Tpx A or Compound A and levels of Fra-1 message assayed. In these experiments, H1299 cells are cultured as described in Example 1. HCT116 cells are cultured in RPMI 1640 medium containing 10% fetal calf serum at 37° C. and 5% CO2. 100 nM trapoxin, 100 nM Compound A or 100 nM DMSO are added to the cells at 60% confluence and grown up for either 6 or 24 hours. Using methodologies as described in Example 1 above, the RNA from cultures treated with Tpx A, Compound A or DMSO as a control is obtained and analysed by Q-PCR for Fra-1 levels; in this case, 8.7 ng total RNA in 12 μl DEPC-H2O are prepared in MicroAmp optical 96 well reaction plates (Applied Biosystems) together with 13 μl TaqMan PCR reagent mix as provided in Table 1.

In test [4] the test system is Fra-1 mRNA in HCT116 cells. The test can be described thus: Fra-1 mRNA levels by Q-PCR in HCT116 cells after HDAC inhibitor treatment. It counts as cell-based. The following applies: for % Fra1 mRNA remaining: 100 nM drug; for mrna remaining at 0.1 µM: Homo sapiens, HCT-116, 100 nM drug, read-out: % Fra1 mRNA remaining. The method, then: as §5
For test [5], the system named is Fra-1 mRNA in A549 cells. The test can be described thus: Fra-1 mRNA expression by conventional microarray technology in A549 cells. It counts as cell-based, Human. The following applies: in the presence of TPX A, data not shown.
Test [6] concerns Fra-1 mRNA in H1299 cells. In words: Fra-1 mRNA expression by conventional microarray technology in H1299 cells. To be noted: in the presence of TPX A, data not shown. The format is cell-based, Human.
Test [7] addresses histone deacetylase activity purified from H1299 cells by ion exchange chromatography (human). In words: cell-based or functional assay.

Like-named read-outs stand apart in the source and are kept apart here. Where a SMILES comes first, the peptide text is derived from it. [ ]: non-standard residue; d: D form. ξ: configuration not given here. Aoe(9ξ) = N[C@@H](CCCCCC(=O)C1CO1)C(=O)O; dPip = O=C(O)[C@H]1CCCCN1 Some results are limits rather than exact numbers.

Consider `O=C(CCCCC[C@@H]1NC(=O)[C@H]2CCCCN2C(=O)[C@H](Cc2ccccc2)NC(=O)[C@H](Cc2ccccc2)NC1=O)C1CO1` (some centres unmarked) [TPX A, trapoxin A] (cyclo(FF[dPip][Aoe(9ξ)])), for which the half-maximal inhibitory concentration (IC50) in test [1] was 2.2 ± 0.96 µM; in test [2] (A549 cell line, Tpx A treatment, Q-PCR, read-out: IC50 for Fra-1 mRNA down regulation), 0.01 to 0.05 µM; in test [3] (H1299 cell line, Tpx A treatment, Q-PCR, read-out: IC50 for Fra-1 mRNA down regulation) it was 0.001 to 0.01 µM. The “% Fra1 mRNA remaining” value in test [2] (24 hours, 1 nM TPX A) was determined as 95%; in test [2] (24 hours, 10 nM TPX A), 64%; in test [2] (24 hours, 50 nM TPX A) it was 26%; in test [2] (24 hours, 100 nM TPX A), 16%; in test [2] (24 hours, 250 nM TPX A) it was 6%; in test [2] (24 hours, 500 nM TPX A), 4%. In addition, the “% Fra1 mRNA remaining” value amounted to 3% in test [2] (24 hours, 1000 nM TPX A); 93% in test [2] (48 hours, 1 nM TPX A); 84% in test [2] (48 hours, 10 nM TPX A); 38% in test [2] (48 hours, 50 nM TPX A); 32% in test [2] (48 hours, 100 nM TPX A); 14% in test [2] (48 hours, 250 nM TPX A). In addition, the “% Fra1 mRNA remaining” value in test [2] (48 hours, 500 nM TPX A) was determined as 7%; in test [2] (48 hours, 1000 nM TPX A) it was 6%; in test [3] (100 nM drug, 6 hr (Example 2)), 5.81%; in test [3] (100 nM drug, 24 hr (Example 2)), 3.11%; in test [3] (24 hours, 1 nM TPX A), 98%; in test [3] (24 hours, 10 nM TPX A), 2%. For the same compound, the “% Fra1 mRNA remaining” value in test [3] (24 hours, 50 nM TPX A) stood at 1%; in test [3] (24 hours, 100 nM TPX A) it was 1%; in test [3] (24 hours, 250 nM TPX A), 1%; in test [3] (24 hours, 500 nM TPX A), 1%; in test [3] (24 hours, 1000 nM TPX A), 1%; in test [3] (48 hours, 1 nM TPX A) it was 94%. In addition, the “% Fra1 mRNA remaining” value in test [3] (48 hours, 10 nM TPX A) was 7%; in test [3] (48 hours, 50 nM TPX A), 1%; in test [3] (48 hours, 100 nM TPX A) it was 1%; in test [3] (48 hours, 250 nM TPX A), 1%; in test [3] (48 hours, 500 nM TPX A) it was 1%; in test [3] (48 hours, 1000 nM TPX A) it was 1%. In addition, the “% Fra1 mRNA remaining” value in test [4] (6 hr) is on record as 14.25%; in test [4] (24 hr), 13.68%. For the same compound, the “repression of Fra-1 mRNA expression (microarray)” value in test [5] and in test [6] was more than 200 fold each time.
In test [1], `O=C(/C=C/c1ccc(CN(CCO)CCc2c[nH]c3ccccc23)cc1)NO` [Compound B, N-Hydroxy-3-[4-[[(2-hydroxyethyl)[2-(1H-indol-3-yl)-ethyl]-amino]methyl]phenyl]-2E-2-propenamide] came in with an IC50 of 0.032 ± 0.017 µM. Further, the values for the mrna remaining at 0.1 µM in test [2] (16 hr), in test [2] (24 hr) and in test [2] (48 hr) were 15%, 14.1% and 52.8%, respectively.
The compound trapoxin A (peptide) registered an IC50/µM on histone deacetylase (release of tritium-labelled acetyl groups from an acetylated Histone H4 peptide) in test [7] of 2.2 µM.
In turn, `O=C(/C=C/c1ccc(CNCCc2c[nH]c3ccccc23)cc1)NO` [Compound A, N-Hydroxy-3-[4-[[[2-(1H-indol-3-yl)-ethyl]-amino]methyl]phenyl]-2E-2-propenamide] yielded an IC50 in test [1] of 0.063 ± 0.01 µM. Besides, the mrna remaining at 0.1 µM in test [3] (100 nM drug, 6 hr (Example 2)) stood at 7.14%; in test [3] (100 nM drug, 24 hr (Example 2)), 2.07%; in test [4] (6 hr), 32.6%; in test [4] (24 hr) it was 15.9%.

The IC50 is the concentration at which inhibition is half-maximal.
